Experimental data as given in patent publication US20100210602A1, “PhoU (PerF), A P[…] INVOLVED IN [sequence] FORMATION AND TOLERANCE TO MULTIPLE ANTIBIOTICS AND [sequence] AS A DRUG TARGET FOR [sequence] BACTERIA” (priority 2006, published 2010).
Converted amounts (≈) assume the structure as drawn. Read-outs that look alike come from different tables or passages of the source.

Columns and labels:
H37Rv [1] = test: microbe, parasite or virus in culture; format: cell-based, M. tuberculosis; conditions: Mycobacterium tuberculosis, 240 h
parent strain H37Rv = format: cell-based, M. tuberculosis
H37Rv [2] = test: microbe, parasite or virus in culture; format: cell-based, M. tuberculosis; conditions: Mycobacterium tuberculosis
PhoU mutant JHU-313 = format: cell-based, E. coli
wild type strain W3110 [3] = test: microbe, parasite or virus in culture; format: cell-based, E. coli; conditions: for CFU remaining: stationary phase
PhoY2 = PhoY2 (Mycobacterium tuberculosis, UniProt P9WI95); test: EnzChek phosphatase assay, FDA approved compound library screen; format: biochemical, M. tuberculosis; conditions: for inhibition of PhoY2 enzyme activity in library screen: 50 μM final concentration, 30 min, 60 min and overnight
Chain of PhoY2 (P9WI95 whole entry): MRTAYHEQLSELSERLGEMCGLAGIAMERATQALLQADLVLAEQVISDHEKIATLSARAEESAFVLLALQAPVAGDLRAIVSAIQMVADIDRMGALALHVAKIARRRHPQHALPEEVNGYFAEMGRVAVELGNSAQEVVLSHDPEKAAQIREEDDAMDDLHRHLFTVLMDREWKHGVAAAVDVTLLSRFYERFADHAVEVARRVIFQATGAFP
Protocol: The FDA approved compound library consisting of about 3000 clinical compounds (50 μM final concentration) was screened for inhibitory activity for M. tuberculosis PhoU homolog PhoY2 for phosphatase activity using the EnzChek phosphatase assay kit in a 96 well plate format. The assay was run for 30 min, 60 min and overnight when the plates were read in a fluorescence plate reader (Perkin Elmer). Aurintricarboxylic acid, a known phosphatase inhibitor, was included as a positive control.

wild type strain W3110 [4] = test: Weak acid susceptibility on LB agar pH 5.0; format: cell-based, E. coli; conditions: salicylic acid 80 μg/ml, pyrazinoic acid 230 μg/ml, overnight 37° C.
PhoU mutant = test: Weak acid susceptibility on LB agar pH 5.0; format: cell-based, E. coli; conditions: salicylic acid 80 μg/ml, pyrazinoic acid 230 μg/ml, overnight 37° C.
M. tuberculosis H37Rv = test: Killing of old stationary phase cells by PhoY2 inhibitors with TB drugs (CFU); format: cell-based; conditions: one and two week exposure, 37° C.
Protocol: PhoY2 phosphatase activity inhibitors identified in the screen were tested for their ability to decrease persister formation in M. tuberculosis. […] After one and two week exposure, CFU (colony forming unit) was measured.

JHU-313 containing pPhoU [5] = test: Kirby-Bauer paper disc assay, zone inhibition
Protocol: (§1) The sensitivity of the bacterial strains to antibiotics or peroxide was determined by Kirby-Bauer's paper disc assay as measured by zone inhibition in millimeters.
(§2) The sensitivity of bacterial strains to antibiotics or stresses was also assessed by the Kirby-Bauer method (2) using paper discs. E. coli bacteria were grown to log phase (10^8 bacteria) in LB broth. An inoculum from this culture was spread across the surfaces of LB plates to provide confluent growth. Nitrocellulose discs (7 mm in diameter) soaked with appropriate antibiotics or stress agents (100 mM H2O2, were placed on the agar surface). After incubation at 37° C. for 48 h, the diameter of the zone of growth inhibition was measured and scored according to the size of the zone of inhibition, which is directly proportional to the sensitivity of the organism to the antibiotic.

wild type strain W3110 [6] = test: microbe, parasite or virus in culture; format: cell-based, E. coli; conditions: LB broth, 16 h at 37° C.
[7] = test system: JHU-313 containing pVector; test: Kirby-Bauer paper disc assay, zone inhibition
Protocol: as §1, §2

JHU-313 = test: Kirby-Bauer paper disc assay, zone inhibition
Protocol: as §1, §2

PhoU mutant (JHU-313) [8] = test: Sequential antibiotic exposure of ampicillin persisters (CFU); format: cell-based, E. coli; conditions: 20 h after 1.5 h ampicillin pre-exposure; ampicillin 100, gentamicin 20, trimethoprim 16, norfloxacin 5 μg/ml
PhoU mutant (JHU-313) [9] = test: MIC/MBC by serial two-fold dilutions in LB broth; format: cell-based, E. coli; conditions: 16 h at 37° C.
JHU-313 containing pPhoU [10] = test: MIC/MBC by serial two-fold dilutions in LB broth; format: cell-based, E. coli; conditions: 16 h at 37° C.
[11] = test system: JHU-313 containing pVector; test: MIC/MBC by serial two-fold dilutions in LB broth; format: cell-based, E. coli; conditions: 16 h at 37° C.
wild type strain W3110 [12] = format: cell-based, E. coli; conditions: 20 h after 1.5 h ampicillin pre-exposure; ampicillin 100, gentamicin 20, trimethoprim 16, norfloxacin 5 μg/ml
PhoY1 = target: T1, PhoY1 (Mycobacterium tuberculosis, UniProt P9WI97); test: EnzChek phosphatase assay; format: biochemical, M. tuberculosis; conditions: pH 5.5
T1 sequence (P9WI97 1-221): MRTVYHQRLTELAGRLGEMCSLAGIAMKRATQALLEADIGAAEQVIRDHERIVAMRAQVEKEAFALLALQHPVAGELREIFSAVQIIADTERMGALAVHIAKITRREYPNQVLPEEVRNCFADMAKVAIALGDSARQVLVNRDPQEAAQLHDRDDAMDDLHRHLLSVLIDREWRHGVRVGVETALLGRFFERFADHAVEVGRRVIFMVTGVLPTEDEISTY

E. coli PhoU = target: T2, E. coli PhoU (Escherichia coli, UniProt P0A9K7); test: EnzChek phosphatase assay, DiFMUP substrate, pH 5.5; format: biochemical; conditions: pH 5.5, DiFMUP
T2 construct: His; made in house
T2 sequence (P0A9K7 whole entry): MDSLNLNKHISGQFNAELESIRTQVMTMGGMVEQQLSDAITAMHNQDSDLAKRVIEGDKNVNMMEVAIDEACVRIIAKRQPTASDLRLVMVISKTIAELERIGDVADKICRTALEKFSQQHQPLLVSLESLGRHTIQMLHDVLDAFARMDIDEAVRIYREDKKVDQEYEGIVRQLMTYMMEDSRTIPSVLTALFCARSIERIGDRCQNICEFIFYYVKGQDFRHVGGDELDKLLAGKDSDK
Protocol: In order to test PhoU for phosphatase activity, purified PhoU protein was analyzed using the EnzChek phosphatase assay kit (Invitrogen, Molecular Probes). Phosphatase activity was continuously monitored at acidic pH 5.5 and 6,8-difluoro-4-methylumbelliferyl phosphate (DiFMUP) was used as the substrate according to manufacturer's instruction.
Since most phosphatases have a metal requirement for activity, using either Mg^2+ or Zn^2+, the effects of various metal ions on the PhoU phosphatase enzyme activity were examined at acidic pH 5.5 and using DiFMUP as a substrate.
Phosphatase assays were performed using purified recombinant wild type and mutant PhoU proteins.

Q: `NNC(=O)c1ccncc1` [INH, isoniazid] was tested. Which MIC (H37Rv [1]; 10 days at 37° C.) did it give?
A: 0.2 µg/mL (≈ 1.46 µM)

Q: How did the “CFU/ml 3 day” value (parent strain H37Rv; 200 μg/ml) turn out when `NC(=O)c1cnccn1` [PZA, pyrazinamide] was run?
A: 3.1 × 10^5 CFU/ml

Q: What about the “CFU/ml 9 day” value (parent strain H37Rv; 200 μg/ml) of the same compound?
A: 5.3 × 10^3 CFU/ml

Q: And the MBC (H37Rv [2]; pH 5.9, read-out: MBC)?
A: 400 µg/mL (≈ 3250 µM)

Q: And the MIC (H37Rv [2]; pH 5.9, read-out: MIC)?
A: 200 µg/mL (≈ 1620 µM)

Q: What about the killing of culture (PhoU mutant JHU-313; pH 5) of the same compound?
A: completely killed

Q: What about the viable bacteria left (PhoU mutant JHU-313; stationary phase, 500 μg/ml, pH 5.0, 1 week) of the same compound?
A: no viable bacteria left

Q: And the sterilization of culture (PhoU mutant JHU-313; stationary phase, 2 mg/ml, pH 5.0, day 6)?
A: completely sterilized

Q: And the MIC (wild type strain W3110 [3]; Escherichia coli, W3110, normal growing E. coli, pH 5.0)?
A: > 2000 µg/mL

Q: What about the CFU left (wild type strain W3110 [3]; pH 5) of the same compound?
A: about 10^6 CFU/ml

Q: And the CFU remaining (wild type strain W3110 [3]; 500 μg/ml, pH 5.0, 1 week)?
A: 5×10^4 CFU/ml

Q: And the CFU remaining (wild type strain W3110 [3]; 2 mg/ml, pH 5.0, day 6)?
A: 6.7×10^6 CFU/ml

Q: And the MIC (H37Rv [1]; pH 5.6, pH5.6, 10 days at 37° C.)?
A: 200 µg/mL (≈ 1620 µM)

Q: With `CO[C@H]1/C=C/O[C@@]2(C)Oc3c(C)c(O)c4c(O)c(c(/C=N/N5CCN(C)CC5)c(O)c4c3C2=O)NC(=O)/C(C)=C\C=C\[C@H](C)[C@H](O)[C@@H](C)[C@@H](O)[C@@H](C)[C@H](OC(C)=O)[C@@H]1C` [RIF, rifampin] as the compound, how does the “CFU/ml 3 day” value (parent strain H37Rv; 8 μg/ml) read?
A: 3.37 × 10^5 CFU/ml

Q: What about the MBC (H37Rv [2]) of the same compound?
A: 0.2 µg/mL (≈ 0.243 µM)

Q: And the MIC (H37Rv [2])?
A: 0.1 µg/mL (≈ 0.122 µM)

Q: What about the MIC (H37Rv [1]; 10 days at 37° C.) of the same compound?
A: 0.2 µg/mL (≈ 0.243 µM)

Q: `C1CNCCN1` [piperazine] was tested. Which “inhibition of PhoY2 enzyme activity in library screen” value (PhoY2) did it give?
A: inhibit PhoY2 enzyme activity

Q: With `CN1CCCN=C1/C=C/c1cccs1` [pyrantel pamoate] as the compound, how does the “inhibition of PhoY2 enzyme activity in library screen” value (PhoY2) read?
A: inhibit PhoY2 enzyme activity

Q: `O=C(O)c1cnccn1` [pyrazinoic acid] was tested. Which “growth on LB agar with weak acid” value (wild type strain W3110 [4]) did it give?
A: resistant

Q: What about the “growth on LB agar with weak acid” value (PhoU mutant) of the same compound?
A: lack of growth at ⅓ MIC

Q: With `O=C(O)c1ccccc1O` [salicylic acid] as the compound, how does the “growth on LB agar with weak acid” value (wild type strain W3110 [4]) read?
A: resistant

Q: What about the “growth on LB agar with weak acid” value (PhoU mutant) of the same compound?
A: lack of growth at ⅓ MIC

Q: For Pyrantel tartrate, which “enhancement of INH, RIF or PZA activity” value (M. tuberculosis H37Rv) is on record?
A: could enhance the activity of INH, RIF or PZA

Q: Which zone inhibition (JHU-313 containing pPhoU [5]; 0.1 μg/ml) does the source give for gentamicin here?
A: 17 mm

Q: What about the zone inhibition (JHU-313 containing pPhoU [5]; 0.5 μg/ml) of the same compound?
A: 22 mm

Q: What about the zone inhibition (JHU-313 containing pPhoU [5]; 2 μg/ml) of the same compound?
A: 24 mm

Q: And the zone inhibition (JHU-313 containing pPhoU [5]; 10 μg/ml)?
A: 28 mm

Q: What about the MBC (wild type strain W3110 [6]) of the same compound?
A: 5 µg/mL

Q: And the MIC (wild type strain W3110 [6])?
A: 2.5 µg/mL

Q: And the zone inhibition ([7]; 0.1 μg/ml)?
A: 22 mm

Q: And the zone inhibition ([7]; 0.5 μg/ml)?
A: 29 mm

Q: And the zone inhibition ([7]; 2 μg/ml)?
A: 30 mm

Q: And the zone inhibition ([7]; 10 μg/ml)?
A: 31 mm

Q: What about the zone inhibition (JHU-313; 0.1 μg/ml) of the same compound?
A: 20 mm

Q: What about the zone inhibition (JHU-313; 0.5 μg/ml) of the same compound?
A: 22 mm

Q: And the zone inhibition (JHU-313; 2 μg/ml)?
A: 26 mm

Q: What about the zone inhibition (JHU-313; 10 μg/ml) of the same compound?
A: 27 mm

Q: And the “CFU after second antibiotic exposure” value (PhoU mutant (JHU-313) [8])?
A: 2 × 10^3 CFU/ml

Q: And the MBC (PhoU mutant (JHU-313) [9])?
A: 2.5 µg/mL

Q: What about the MIC (PhoU mutant (JHU-313) [9]) of the same compound?
A: 1.25 µg/mL

Q: And the MBC (JHU-313 containing pPhoU [10])?
A: 5 µg/mL

Q: What about the MIC (JHU-313 containing pPhoU [10]) of the same compound?
A: 2.5 µg/mL

Q: And the zone inhibition (W3110; 0.1 μg/ml)?
A: 14 mm

Q: What about the zone inhibition (W3110; 0.5 μg/ml) of the same compound?
A: 20 mm

Q: What about the zone inhibition (W3110; 2 μg/ml) of the same compound?
A: 22 mm

Q: And the zone inhibition (W3110; 10 μg/ml)?
A: 25 mm

Q: And the MBC [11]?
A: 2.5 µg/mL

Q: What about the MIC [11] of the same compound?
A: 1.25 µg/mL

Q: What about the “CFU after second antibiotic exposure” value (wild type strain W3110 [12]) of the same compound?
A: 5 × 10^5 CFU/ml

Q: With phosphate as the compound, how does the “effect on PhoY2 phosphatase activity” value (PhoY2; pH 5.5) read?
A: inhibited

Q: And the “effect on PhoY1 phosphatase activity” value (PhoY1)?
A: inhibited

Q: And the “effect on PhoU phosphatase activity” value (E. coli PhoU)?
A: inhibit the phosphatase activity
